From patent US11746110B2, “Alkynyl (hetero) aromatic ring compounds used for inhibiting protein kinase activity” (Shenzhen TargetRx, Inc., priority 2018, dated 2023)

Assays:
Ba/F3 KIF5B-RET cells = assay: Cell proliferation analysis, Ba/F3 KIF5B-RET; assay type: cell-based; conditions: Mus musculus, BaF3, 72 h; 3 days, CellTiter-Glo
Procedure: (§1) The inhibitory effect of the example compounds on Ba/F3 parental, Ba/F3 Bcr-Abl^T315I, K562, Ba/F3 KIF5B-RET, BaF3 FLT3-ITD cell activity was determined.
(§2) Materials and reagents: RPMI-1640 medium (GIBCO, Catalog No. A10491-01), fetal bovine serum (GIBCO, Catalog No. 10099141), antibiotics (Penicillin-Streptomycin), IL-3(PeproTech), promycin; cell lines: Ba/F3 parental, Ba/F3 Bcr-Abl^T315I, Ba/F3 KIF5B-RET, BaF3 FLT3-ITD, (purchased from American type culture collection, ATCC), K562 live cell detection kit CellTiter-Glo4(Promega, Catalog No. G7572), 96-well black wall transparent flat bottom cell culture plate (Corning, Catalog No. 3340).
(§3) Test method: 1. Preparation of cell plate: Ba/F3 parental, Ba/F3 Bcr-Abl^T315I K563, Ba/F3 KIFSB-RET, BaF3 FLT3-ITD cells were respectively seeded in 96-well plates, and 8 ng/ml IL-3 was added to the Ba/F3 cells, and the cell plates were placed in a carbon dioxide incubator and cultured overnight. 2. The test compounds were dissolved in DMSO, 9 compound concentrations were made with a 3.16-fold gradient dilution in triplicate. 3. Treatment of the cells with compounds: The compounds were transferred to the cell plate with a starting concentration of 10 μM. The cell plate was placed in a carbon dioxide incubator for 3 days. 4. Detection: CellTiter-Glo agent was added to the cell plate, and incubated at room temperature for 30 minutes to stabilize the luminous signal. PerkinElmer Envision multi-label analyzer was used for reading, wherein A represents IC50≤50 nM, B represents IC50 is 50-100 nM, C represents IC50 is 100-500 nM, D represents IC50 is 500-1000 nM, […].

RET^V804M = RET^V804M (Homo sapiens (Human), UniProt P07949, V804M); assay: Biochemical kinase analysis, RET V804M; conditions: kinase inhibition assay
Procedure: (§4) Reagents and materials: ABL (ThermoFisher, Cat. No. PV3585), ABL^T315I(Thermo Fisher, Cat. No. PR7429B), Ret (Carna, Cat. No. 08-159-10 ug), RET^V804M, Active (Signalchem, Cat. No. R02-12GG), ATP (Sigma, Cat. No. A7699-1G), DMSO (Sigma, Cat. No. D2650), 96-well plate (Corning, Cat. No. 3365), 384-well plate (Greiner, Cat. No. 784076), buffer solution (Thermo Fisher, Cat. No. PR4876B).
(§5) Compound formulation: The test compounds were dissolved in DMSO to prepare a 20 mM stock solution. Before use, the compounds were diluted in DMSO to 0.1 mM, and diluted into 11 concentrations with a 3-fold gradient. When addition, dilutions of 4-fold final concentration were then made with buffer solution.
(§6) Kinase assay method: After preparing the buffer, the enzyme was mixed with pre-formulated and diluted compounds of different concentrations in duplicate for each concentration, and placed at room temperature for 30 minutes. The corresponding substrate and ATP were added thereto, and reacted at room temperature for 60 minutes (both a negative and a positive control were set). After the reaction, antibody was added for detection, Evnvision detection was carried out after 60 minutes incubation at room temperature, and data was collected. Data analysis and fitting were made according to XLfit5 software.

ABL^T315I = ABL^T315I (Homo sapiens (Human), UniProt P00519, T315I); assay: Biochemical kinase analysis, ABL T315I; conditions: kinase inhibition assay
Procedure: as §4, §5, §6

Ba/F3 parental cells = assay: Cell proliferation analysis, Ba/F3 parental; assay type: cell-based; conditions: Mus musculus, BaF3, 72 h; 3 days, CellTiter-Glo, 8 ng/ml IL-3
Procedure: as §1, §2, §3

K562 cells = assay: Cell proliferation analysis, K562; assay type: cell-based; conditions: Homo sapiens, K562, 72 h; 3 days, CellTiter-Glo
Procedure: as §1, §2, §3

[1] = test system: Ba/F3 Bcr-Abl^T315I cells; assay: Cell proliferation analysis, Ba/F3 Bcr-Abl T315I; assay type: cell-based; conditions: Mus musculus, BaF3, 72 h; 3 days, CellTiter-Glo; read-out: IC50 (nM) Ba/F3 BCR-ABL^T315
Procedure: as §1, §2, §3

Ret = Ret (Homo sapiens (Human), UniProt P07949); assay: Biochemical kinase analysis, Ret; conditions: kinase inhibition assay
Procedure: as §4, §5, §6

Ba/F3 BCR-ABL cells = assay: Cell proliferation analysis, Ba/F3 BCR-ABL; assay type: cell-based; conditions: Mus musculus, BaF3, 72 h; 3 days, CellTiter-Glo
Procedure: [Worded in the source for another variant; this variant is reported under the same test.] as §1, §2, §3

ABL = ABL (Homo sapiens (Human), UniProt P00519); assay: Biochemical kinase analysis, ABL; conditions: kinase inhibition assay
Procedure: as §4, §5, §6

BaF3 FLT3-ITD cells = assay: Cell proliferation analysis, BaF3 FLT3-ITD; assay type: cell-based; conditions: Ba/F3 FLT3-ITD, 72 h; 3 days, CellTiter-Glo
Procedure: as §1, §2, §3

Sequence of Ret (P07949 29-1114): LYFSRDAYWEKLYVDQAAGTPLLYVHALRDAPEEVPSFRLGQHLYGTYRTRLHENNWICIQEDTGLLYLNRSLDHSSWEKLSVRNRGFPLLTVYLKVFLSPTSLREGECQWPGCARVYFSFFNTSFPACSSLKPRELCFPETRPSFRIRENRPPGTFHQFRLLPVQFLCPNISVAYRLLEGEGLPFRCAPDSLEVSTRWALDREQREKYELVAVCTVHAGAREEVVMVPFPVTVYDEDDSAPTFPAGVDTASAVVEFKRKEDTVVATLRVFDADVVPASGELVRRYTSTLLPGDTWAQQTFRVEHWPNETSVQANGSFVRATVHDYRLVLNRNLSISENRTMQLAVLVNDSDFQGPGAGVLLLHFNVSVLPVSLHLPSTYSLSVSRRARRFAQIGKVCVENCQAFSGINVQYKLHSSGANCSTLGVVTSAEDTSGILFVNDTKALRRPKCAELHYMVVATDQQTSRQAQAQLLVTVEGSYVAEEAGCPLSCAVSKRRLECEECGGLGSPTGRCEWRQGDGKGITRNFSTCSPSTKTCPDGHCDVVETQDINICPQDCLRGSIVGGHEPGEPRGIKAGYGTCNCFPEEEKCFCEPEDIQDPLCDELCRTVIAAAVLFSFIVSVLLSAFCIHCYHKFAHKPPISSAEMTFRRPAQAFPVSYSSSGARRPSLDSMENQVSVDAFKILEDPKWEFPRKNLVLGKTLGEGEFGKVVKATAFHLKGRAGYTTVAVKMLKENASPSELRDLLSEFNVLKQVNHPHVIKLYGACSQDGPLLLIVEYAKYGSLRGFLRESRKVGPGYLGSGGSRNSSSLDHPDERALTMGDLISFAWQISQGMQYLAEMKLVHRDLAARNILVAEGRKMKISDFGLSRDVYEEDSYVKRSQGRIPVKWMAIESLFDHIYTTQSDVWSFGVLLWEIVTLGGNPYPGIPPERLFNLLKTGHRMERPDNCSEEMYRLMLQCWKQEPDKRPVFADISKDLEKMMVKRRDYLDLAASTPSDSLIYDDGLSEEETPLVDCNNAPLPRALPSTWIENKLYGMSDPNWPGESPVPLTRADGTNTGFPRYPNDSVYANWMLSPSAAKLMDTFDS
Sequence of RET^V804M (P07949 29-1114 V804M): as the sequence (P07949 29-1114) above, with V776M counted along it

IC50 (Ba/F3 KIF5B-RET cells)	IC50 (RET^V804M)	IC50 (ABL^T315I)	IC50 (K562 cells)	IC50 [1]	IC50 (Ret)	IC50 (Ba/F3 BCR-ABL cells)	IC50 (ABL)	IC50 (BaF3 FLT3-ITD cells)	SMILES	IC50 (Ba/F3 parental cells)
10.1 nM	12.2 nM	9.05 nM	0.28 nM	15 nM	0.88 nM	5.63 nM	3.91 nM	17.7 nM	Cc1ccc(NC(=O)c2cccc(C(F)(F)F)c2)cc1C#Cc1cnc2c(Nc3cnn(C)c3)nccn12 [Example 1, N-(4-methyl-3-((8-((1-methyl-1H-pyrazol-4-yl)amino)imidazo[1,2-a]pyrazin-3-yl)ethynyl)phenyl)-3-(trifluoromethyl)benzamide]	838 nM
26.4 nM	23.1 nM	27.5 nM	0.16 nM	101 nM	0.25 nM	4.75 nM	1.89 nM	67.7 nM	Cc1ccc(NC(=O)c2ccnc(C(F)(F)F)c2)cc1C#Cc1cnc2c(Nc3cnn(C)c3)nccn12 [Example 3, N-(4-methyl-3-((8-((1-methyl-1H-pyrazol-4-yl)amino)imidazo[1,2-a]pyrazin-3-yl)ethynyl)phenyl)-2-(trifluoromethyl)isonicotinamide]	1340 nM
